Where two headings read alike, the source gives them in different places.
Experiments:
[1] = system: P. falciparum male gametocytes; assay: PhIDDLI screening assay, 24 h preincubation at 10xIC50, tubulin/DAPI imaging of male gametogenesis; assay type: cell-based, Plasmodium falciparum NF54; conditions: approximately 10xIC50, fixed 20 min post-induction
Procedure: Mature gametocytes were treated for 24h with approximately 10xIC50 of test compounds or DMSO as a solvent control. Male gametogenesis was then induced by lowering the temperature from 37°C to ~20°C and adding xanthurenic acid. 20min later, when male gametogenesis (exflagellation) could be expected to peak, all samples were fixed. A sample of non-induced DMSO-treated gametocytes was fixed with 4% paraformaldehyde to provide an unactivated gametocyte control for comparison. The cells were then processed for immunofluorescence using an antibody against alpha-tubulin II and DNA staining with 4′,6-diamidino-2-phenylindole (DAPI) and visualised by fluorescence microscopy. Tubulin-bright cells from each treated sample were imaged and captured at random.
Cells were identified using a semi-automated pipeline established in the ICY BioImageAnalysis (https://icy.bioimageanalysis.org/) protocols module. Images and accompanying bounding boxes representing the outlines of identified cells were then passed to the PhIDDLI pipeline. PhIDDLI consists of several open source image processing and AI/ML modules connected for seamless processing, clustering and visualisation of cellular phenotypes (Fig 3A). […] To focus on the overall cellular phenotype rather than potentially confounding variable immunostaining intensities between experimental replicates, cells were transformed so that the range of staining intensities for each channel were normalised to fall between a 0–255 pixel intensity value. Then, using the Albumentations module (https://albumentations.ai/) to augment the dataset and control for cells in different orientations, each extracted cell image was rotated 90, 180 and 270 degrees and mirrored so that each cell was represented eight different times in the dataset. The augmented images were then passed to the EffcientNet-B1 module (https://github.com/tensorflow/tpu/tree/master/models/official/efficientnet) (a pretrained neural network developed for image processing) which extracted 1,000 distinct numerical features from each individual cell image. The EfficientNet-B1 was selected from amongst the other EfficientNet models due to its input image size (240 pixels) best matching the size of the individual cell images in the dataset, therefore ensuring maximal input data whilst allowing acceptable computation time on a desktop computer. […]
Mature gametocyte cultures were divided into 100 μl “microcultures” in pre-warmed 1.5 ml tubes also containing 100 μl complete culture medium with test compounds at a final concentration of 10xIC50 or 0.5% DMSO as a solvent control. Tubes were gassed and incubated at 37°C for 24 h. The entire compound library was screened once, spread over four different experiments, each with two DMSO control tubes. An 8% formaldehyde solution was prepared by diluting 16% methanol-free formaldehyde in an equal volume of phosphate-buffered saline (PBS). In each experiment, one DMSO control tube was fixed with equal volume of 8% formaldehyde (4% final concentration) at 37°C to provide an “unactivated” gametocyte control. Gametogenesis was then triggered in the remaining DMSO control tube and all compound tubes by adding 10 μl ookinete medium, and they were immediately incubated at room temperature. After 20 min (when exflagellation is maximal), all remaining tubes were fixed for 30 min.
100 μl of the fixed cell suspensions were added to wells of a 24 well plate containing 1ml PBS and a poly-l-lysine-coated glass coverslip.

[2] = system: P. falciparum female gametocytes; assay: P. falciparum Dual Gamete Formation Assay (PfDGFA), female readout (Pfs25-positive female gametes); assay type: cell-based, Plasmodium falciparum NF54; conditions: for IC50: this study, read-out: Pf DGFA IC50 FEM
In short: (§1)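 First, day-14 P. falciparum NF54 gametocytes receive compound for 24 h at 37°C in 1% O2/3% CO2. Next, ookinete medium with Cy3 anti-Pfs25 triggers gametogenesis at 28°C and male exflagellation is imaged. Finally, after 24 h in the dark, Cy3-labelled females are imaged.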

[3] = system: P. falciparum gametocytes; set-up: method as in Almela et al 2015; conditions: ref Almela et al 2015; read-out: Pf Gametocyte viability (ATP) GC-ATP IC50; cited from earlier work
HepG2 cells [4] = conditions: cited from earlier work
[5] = system: P. falciparum male gametocytes; assay: PhIDDLI timecourse assay, compound added at timepoints after triggering male gametogenesis; assay type: cell-based, Plasmodium falciparum NF54; conditions: for impact on exflagellation: compound added concurrent with triggering gametogenesis or at any other point
Procedure: To gain greater understanding of their activity, selected molecules displaying different inhibition phenotypes in the initial screen were re-tested. Rather than subjecting gametocytes to a 24h preincubation prior to inducing gametogenesis, compounds were added at varying timepoints after triggering male gametogenesis. Samples were then fixed 20 min post-induction, imaged and analysed similarly using the PhIDDLI pipeline.
Alternatively, if compound action over time was to be assessed, 1.5ml tubes with appropriate dilutions of test compounds were prepared for each timepoint. Gametogenesis was then triggered in the mature gametocyte culture with ookinete medium and temperature decrease from 37°C. At appropriate times, 200 μl of triggered culture was sampled and mixed with test compound. All samples were then allowed to continue gametogenesis and fixed as described previously with paraformaldehyde after 20 min (when a DMSO-treated sample could be expected to be exflagellating).
100 μl of the fixed cell suspensions were added to wells of a 24 well plate containing 1ml PBS and a poly-l-lysine-coated glass coverslip. Cells were allowed to settle and adhere to the coverslip overnight at 4°C before coverslips were transferred to a hydrophobic membrane (Parafilm) for immunofluorescence staining in a humidified, dark box. Cells were permeabilised with 0.1% Triton-X100 in PBS for 10 min before washing in PBS three times. Non-specific binding was blocked by incubating coverslips with PBS + 10% fetal bovine serum (FBS) (blocking buffer) for 1 h. Gametocytes and microgametes were visualised by labelling with an anti-alpha tubulin antibody (raised from chicken embryo brain tubulin but cross-reacts with many other species) (clone DM1A (Sigma)) 1:500 dilution in blocking buffer for 1 h, washed as before, and then stained with an anti-mouse Alexa488 secondary antibody (Thermo-Fisher) 1:1,000 dilution in blocking buffer for a further 1 h. After a final series of washes, the coverslips were mounted on glass slides with VectaShield mountant (Vector Laboratories) containing 4′,6-diamidino-2-phenylindole (DAPI) to visualise cellular DNA.
All slides were imaged using a Nikon Ti fluorescence microscope using an x100 oil objective and 1.5x zoom. For each sample, tubulin-postive, DAPI-positive stained gametocytes/gametes were imaged at random. Z-stack images with 0.3μm slices were captured for each field of view and images deconvolved and transformed by maximum intensity projection within the Nikon NIS Elements software. Within raw images, cells were initially identified by an automated analysis pipeline developed in ICY Bioimage Analysis based upon the intensity of the tubulin staining captured which assigns a region of interest (ROI) around each cell. All ROIs were reviewed by a trained operator and adjusted if necessary to reflect the true outline of the cell (for example if two cells touching had been allocated the same ROI). Raw images contained between 1 and 8 extractable cells.
Code for the PhIDDLI pipeline was written in Python 3.8 and executed by command line within a 64-bit Ubuntu virtual machine running within Oracle VM VirtualBox 6.1. […] Principle component analysis of compound phenotypes (Fig 5) was performed using ClustViz (https://biit.cs.ut.ee/clustvis/) using ln(x+1) transformation, and k-means clustering of the resultant PCA data was coded in R and executed in R Studio version 1.1.456 to identify optimum cluster using the elbow method.

HepG2 cells [6] = assay: HepG2 cytotoxicity counter-screen; conditions: mean of the HepG2 TOX50 values
[7] = system: P. falciparum male gametocytes; assay: P. falciparum Dual Gamete Formation Assay (PfDGFA), male readout (exflagellation); assay type: cell-based, Plasmodium falciparum NF54; conditions: for IC50: this study, read-out: Pf DGFA IC50 MALE
In short: as §1

[8] = system: P. falciparum gametocytes; assay: P. falciparum Gametocyte Viability ATP Assay (PfGCT); assay type: cell-based, Plasmodium falciparum; conditions: Mean TOX HepG2 over GC-ATP IC50; GREEN = >10-fold; RED = <10-fold
Excerpt: Fig 1 The activity of TCAMS compound identified in the Pf DGFA screen. (A) 85 molecules were confirmed active in the Pf DGFA. 58 were previously identified in one or more transmission-blocking screens. […] No molecule was identified with >4.7-fold greater activity against female gametocytes. Abbreviations (IC50 = concentration giving 50% inhibition, PbODA = P. berghei Ookinete Development Assay, PfDGFA = P. falciparum Dual Gamete Formation Assay, PfFGAA = P. falciparum Female Gametocyte Activation Assay, PfGCT = P. falciparum Gametocyte Viability ATP Assay).

[9] = system: P. falciparum female gametocytes; set-up: method as in Miguel-Blanco et al 2017; conditions: ref Miguel-Blanco et al 2017; read-out: Pf female gametogenesis FGAA IC50; cited from earlier work
[10] = system: P. falciparum female gametocytes; assay: P. falciparum Female Gametocyte Activation Assay (PfFGAA); assay type: cell-based, Plasmodium falciparum; conditions: Mean TOX HepG2 over FGAA IC50; GREEN = >10-fold; RED = <10-fold
[11] = system: P. berghei ookinete development; assay: P. berghei Ookinete Development Assay (PbODA); assay type: cell-based, Plasmodium berghei; conditions: Mean TOX HepG2 over Pb ODA value; GREEN = >10-fold; RED = <10-fold

## O=S(=O)(NCC1(O)CCOc2ccccc21)c1ccc(Br)s1 (stereo not drawn) [DDD01035881, reference compound]
[1]
  Cellular phenotype of male gametocytes: arrested male gametogenesis late

## COc1ccc2nc3cc(Cl)ccc3c(NCCCCNc3c4ccc(Cl)cc4nc4ccc(OC)cc34)c2c1 [TC02]
[2]
  Cytotox ratio Pf Female: 22.1
  IC50: 380 nM
[3]
  IC50: 200 nM
HepG2 cells [4]
  GC-ATP TOX50 HepG2: 14.47 µM
[5]
  impact on exflagellation: little-to-no impact
HepG2 cells [6]
  Mean TOX: 8.39 µM
[7]
  Cytotox ratio Pf Male: 22.1
  IC50: 380 nM
[8]
  Cytotox ratio Pf GC-ATP: 42.0

## CC(C)(C)c1ccc(-c2nc3c(ccc4nc(N)nc(N)c43)[nH]2)cc1.Cl [TC05]
[2]
  Cytotox ratio Pf Female: 3.2
  IC50: 970 nM
[3]
  IC50: 210 nM
HepG2 cells [4]
  FGAA TOX50 HepG2: 2.12 µM
  GC-ATP TOX50 HepG2: 3.85 µM
[5]
  impact on exflagellation: little-to-no impact
HepG2 cells [6]
  Mean TOX: 3.07 µM
[7]
  Cytotox ratio Pf Male: 17.1
  IC50: 180 nM
[8]
  Cytotox ratio Pf GC-ATP: 14.6
[9]
  IC50: 260 nM
[10]
  Cytotox ratio Pf FGAA: 11.8

## O=C(c1ccc([N+](=O)[O-])o1)N1CCC(Cc2ccc(C(F)(F)F)cc2)CC1 [TC15]
[2]
  Cytotox ratio Pf Female: 52.7
  IC50: 440 nM
[1]
  Cellular phenotype of male gametocytes: retain their falciform shape but have a condensed mass of unreplicated DNA and several thin microtubule structures
[3]
  IC50: 260 nM
HepG2 cells [4]
  FGAA TOX50 HepG2: 27.05 µM
  GC-ATP TOX50 HepG2: 14.11 µM
HepG2 cells [6]
  Mean TOX: 23.20 µM
[7]
  Cytotox ratio Pf Male: 58.0
  IC50: 400 nM
[8]
  Cytotox ratio Pf GC-ATP: 89.2
[9]
  IC50: 160 nM
[10]
  Cytotox ratio Pf FGAA: 145.0

## CCN(CC)CCN(Cc1ccc(-c2ccc(C(F)(F)F)cc2)cc1)C(=O)Cn1cc(Cc2cnn(C)c2)c(=O)nc1/C=C/c1cccc(F)c1F.O=C(O)C(O)C(O)C(=O)O [TC18]
[2]
  Cytotox ratio Pf Female: 3.0
  IC50: 4100 nM
[1]
  Cellular phenotype of male gametocytes: retain their falciform shape but have a condensed mass of unreplicated DNA and several thin microtubule structures
[3]
  IC50: 170 nM
HepG2 cells [4]
  FGAA TOX50 HepG2: 9.69 µM
  GC-ATP TOX50 HepG2: 14.4 µM
HepG2 cells [6]
  Mean TOX: 12.35 µM
[7]
  Cytotox ratio Pf Male: 19.6
  IC50: 630 nM
[8]
  Cytotox ratio Pf GC-ATP: 72.7
[9]
  IC50: 870 nM
[10]
  Cytotox ratio Pf FGAA: 14.2

## Fc1ccc2[nH]c(-c3ccc(-c4ccc(CNCCN5CCNCC5)cc4)s3)nc2c1.O=C(O)C(F)(F)F [TC23]
[2]
  Cytotox ratio Pf Female: 3.4
  IC50: 7180 nM
[3]
  IC50: 530 nM
HepG2 cells [4]
  GC-ATP TOX50 HepG2: 25 µM
[5]; compound added concurrent with triggering gametogenesis, DMSO control 43.7%
  cells exflagellating: 19.8%
HepG2 cells [6]
  Mean TOX: 24.53 µM
[7]
  Cytotox ratio Pf Male: 12.4
  IC50: 1970 nM
[8]
  Cytotox ratio Pf GC-ATP: 46.3

## COc1cc(-c2nc(C(C)(C)CN)[nH]c2-c2ccncc2)ccc1Br.Cl [TC27]
[2]
  Cytotox ratio Pf Female: 25.9
  IC50: 1610 nM
[1]
  Cellular phenotype of male gametocytes: unactivated phenotype consistent with total arrest of gametogenesis
HepG2 cells [4]; HepG2 value reported with the ODA screen, ref Delves et al 2019
  ODA TOX50 HepG2: 39.811 µM
[11]
  Cytotox ratio Pb Ookinete: 31592.6
HepG2 cells [6]
  Mean TOX: 41.74 µM
[7]
  Cytotox ratio Pf Male: 23.6
  IC50: 1770 nM
